Consider one compound from US5571844A, “Amidinophenylalanine derivatives, a process for their preparation, their use and compositions containing these as anticoagulants” (Behringwerke Aktiengesellschaft, priority 1993, dated 1996).

The nature of data set [1]: Determination of the subcutaneous absorption of substances (2) and (5), rabbits. In kind it is in vivo. To be noted: 2 mg/kg. On the procedure: The substances were administered to rabbits subcutaneously in a dosage of 2 mg/kg. The maximum plasma concentration of (5) was reached after 5 minutes. The maximum plasma concentration of (2) was reached after 80 minutes.
Data set [2] in a line: Determination of the elimination half-lives t1/2 β, intravenous, rats. In kind it is in vivo. The conditions noted are these: rat, i.v., 5 mg/kg, plasma, calculated, second phase. The protocol: Determination of the Elimination Half-lives t1/2 β The thrombin inhibitors (2)-(5) in the table were administered intravenously to rats (5 in each group) at a dosage of 5 mg/kg. Blood samples were taken, and the time-dependent concentrations of thrombin inhibitors in the plasma were determined. Elimination takes place in two phases. The calculated elimination half-lives t1/2 β are compiled in it.

For the next data set, the target named is T1, trypsin (Bos taurus, UniProt P00760).
T1 sequence (P00760 24-246): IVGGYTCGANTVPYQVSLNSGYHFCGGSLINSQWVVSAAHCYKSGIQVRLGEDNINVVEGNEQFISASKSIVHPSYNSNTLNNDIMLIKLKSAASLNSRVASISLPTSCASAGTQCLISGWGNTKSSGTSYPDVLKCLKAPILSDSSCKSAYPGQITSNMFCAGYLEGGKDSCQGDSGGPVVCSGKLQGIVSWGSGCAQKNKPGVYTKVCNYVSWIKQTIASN
Put plainly: Ki with respect to trypsin (specificity of the inhibitors). In kind it is biochemical. On the procedure:
(§1) The inhibitors according to the invention have been tested according to various criteria to assess their efficacy, these preferably being the determination of the Ki value, of the IC50 value and of the partial thrombo-plastin time (PTT) in vivo and in vitro. To test the specificity, the IC50 values and Ki values with respect to various serine proteases, especially thrombin and trypsin, were measured. The stability of the substances according to the invention was determined by incubating a sample of the substance with a pure enzyme, preferably trypsin, chymotrypsin or papain, and with liver or intestinal homogenates, taking samples from the solutions at intervals of time, and preferably measuring by HPLC.
The specificity of the inhibitors was determined with thrombin and trypsin. The specificity is defined as the ratio of the Ki values for trypsin and thrombin (table).

The next data set addresses human thrombin (Homo sapiens, UniProt P00734). Put plainly: Determination of the inhibition constants (Ki) for thrombin. Type of data set: biochemical. The conditions noted are these: human thrombin 100 pM, substrate S2238, pH 7.8, 37 degrees C., 60 min preincubation. The protocol:
as §1
The inhibition constants (Ki) for the substances were determined by known enzyme kinetic methods. The human thrombin employed was determined to be 87% pure by means of active site titration. […] The inhibitor and enzyme were preincubated for 60 minutes, and the reaction was started by addition of the chromogenic substrate S2238. The kinetics were analyzed using the mathematical algorithm for tight binding, which with the aid of non-linear regression yielded Ki values (table) and the type of inhibition.

Take `COc1cc(C)c(S(=O)(=O)N[C@@H](CC(=O)O)C(=O)N[C@H](Cc2ccc(C(=N)N)cc2)C(=O)N2CCCCC2)c(C)c1C` [(5)]: in data set [1] (rabbit, plasma, sc, read-out: time to maximum plasma concentration (converted)), the Tmax is 5 min. Further, the “duration of effective plasma level” value in data set [1] (s.c.) amounted to 3 h. In data set [2], the half-life was 19 min. Moreover, the results for the Ki at trypsin and on human thrombin were 312 nM and 2.5 nM, respectively.
